Source: US20120087914A1, “INHIBITION OF TRIM62 ACTIVITY REDUCES CANCER CELL PROLIFERATION” (Fred Hutchinson Cancer Research Center, priority 2008, published 2012)

Tests used:
Format in all cases: cell-based, human
[1] = tested on: BT474 cells; experiment: EdU incorporation by flow cytometry in BT474 cells; conditions: 25 nM siRNA, 12 hours EdU, Control siRNA 17.5%
Method: (§1) 4×10^5 MCF10A cells (immortalized, non-transformed epithelial cells derived from human fibrocystic mammary tissue; ATCC CRL-10217) or BT474 cells (Her2^+ human breast cancer cell line) were seeded in growth media (DMEM/F12 (Gibco), 5% horse serum (Invitrogen), […] (Peprotech), 1 mg/ml hydrocortisone (Sigma), […] cholera toxin (Sigma), […] (Sigma), and Pen/Strep (Invitrogen)). After 24 hours, media was changed to antibiotic-free growth medium, and lipofectamine 2000 was used to cotransfect MCF10A cells with either 15 nM Trim62SiRNA (SEQ ID NO: 9; 5′ AAGAAGCAGAGAAGCGCGC-3″ (Integrated DNA Technologies)) and 15 nM siGlow (non-targeting control siRNA labeled with Cy3 (Thermo Scientific)), or 15 nM Trim62scrambled siRNA (SEQ ID NO:10; 5′ GCGAGGACGGACAAA CAGA 3′ (Sigma)) and 15 nM siGlow; for BT474 cells 25 nM siRNA was used. 6 hours post transfection, media was replaced with growth media containing antibiotics, and 48 hours postransfection, MCF10A cell were incubated for 1.5 hours with […] (5-ethynyl-2′-deoxyuridine, an analog of BrdU); for BT474 cells incubation with EdU was for 12 hours. Cells were trypsinized, washed with PBS-1% FBS, and sorted for Cy3 transfection marker using a cell sorter (BD FACSArisII cell sorter). […] The data was collected using a BD FACS Diva software package and analyzed using BD CellQuest Pro Software. […]

[2] = tested on: MCA10F cells; experiment: Cell cycle distribution of exponentially growing MCA10F cells (FIG. 9); conditions: sorted on siGLO-FITC
Method: FIG. 9 provides an assessment of TRIM62siRNA on the cell cycle of MCA10F exponentially growing cells. The cells were sorted on siGLO-FITC.
as §1, with “hours.” for “hours. Cells were trypsinized, washed with PBS-1% FBS, and sorted for Cy3 transfection marker using a cell sorter (BD FACSArisII cell sorter).”

[3] = tested on: MCF10A cells; experiment: EdU incorporation by flow cytometry in MCF10A cells; conditions: 15 nM siRNA, 48 hours posttransfection, 1.5 hours EdU, control SiRNA 29.5%
Method: as §1

[4] = tested on: p27^Kip1 protein levels in UACC893 cells; experiment: p27^Kip1 Western blot in UACC893 cells with lapatinib and/or TRIM62 siRNA; conditions: UACC893 cells (amplified ErbB2), 0.5 μM lapatinib, siRNA from expression vector, FIG. 7
Method: A breast cancer cell line with an amplified ErbB2 gene (UACC893) was transfected with a TRIM62 siRNA expression vector or a vector that expressed a control siRNA. p27^Kip1 levels were assayed by Western blotting using a p27^Kip1 specific antibody. After treatment of the control-transfected cells with 0.5 μM lapatinib, p27^Kip1 levels increased as compared to the untreated cells. Cells transfected with the TRIM62 siRNA also had increased p27^Kip1 levels.
p27^Kip1 protein levels were measured in breast cancer cells with ErbB2 gene amplification after administration of an ErbB2 specific mall organic molecule, lapatinib. p27^Kip1 expression levels were higher after lapatinib was administered. […] The increased levels of p27^Kip1 expression coincided with increased nuclear localization of p27^Kip1. Data not shown.

[5] = tested on: p27^Kip1 protein levels in UACC893 cells transfected with a TRIM62 expression vector; experiment: p27^Kip1 Western blot in UACC893 cells overexpressing TRIM62, treated with lapatinib; conditions: UACC893 cells overexpressing TRIM62, 0.5 μM lapatinib, FIG. 8
Method: A breast cancer cell line with an amplified ErbB2 gene (UACC893) was transfected with a TRIM62 expression vector or an empty vector. p27^Kip1 levels were assayed by Western blotting using a p27^Kip1 specific antibody. Cells were treated with 0.5 μM lapatinib or buffer.
The effect of overexpression of TRIM62 protein on p27^Kip1 expression was determined in breast cancer cells with ErbB2 gene amplification. […] A breast cancer cell line with an amplified ErbB2 gene (UACC893) was transfected with a TRIM62 expression vector or an empty vector. p27^Kip1 levels were assayed by Western blotting using a p27^Kip1 specific antibody. Cells were treated with 0.5 μM lapatinib or buffer. As compared to an empty vector control, cells that overexpressed TRIM62 had low levels of p27^Kip1 protein expression.

Compound	EdU^+ cells [1] [%]	percentage of cells that remain in G1 [2]	EdU^+ cells [3] [%]	p27^Kip1 protein expression levels [4]	expression of p27^Kip1 protein [5]
5′ AAGAAGCAGAGAAGCGCGC-3″ [T62siRNA]	9	higher percentage	11.1		
CS(=O)(=O)CCNCc1ccc(-c2ccc3ncnc(Nc4ccc(OCc5cccc(F)c5)c(Cl)c4)c3c2)o1 [lapatinib]				higher	did not result in increased expression
